# Assay results taken from the RepoRT retention time repository.
# Assay: A: acetonitrile + 0.1% formic acid + 10 mM ammonium formate; B: 5% water + 95% acetonitrile + 0.1% formic acid + 10 mM ammonium formate; gradient (min/%B) 0/10 2/10 22/100 27/100 27.1/10
# Details: stereoisomer not certain
row,SMILES,LC retention time [min]
1,CCOC(=O)N1CCC(=C2c3ccc(Cl)cc3CCc3cccnc32)CC1 [Loratadine],0.433
2,CCC(C)C(=O)OC1CC(C)C=C2C=CC(C)C(CCC3CC(O)CC(=O)O3)C21 (stereo not drawn) [Lovastatin],0.419
3,O=c1cc(-c2ccc(O)c(O)c2)oc2cc(O)cc(O)c12 [Luteolin],0.593
4,OCC(O)C(O)C(OC1OC(CO)C(O)C(O)C1O)C(O)CO (stereo not drawn) [Maltitol],6.59
5,OCC1OC(OC2C(CO)OC(OC3C(CO)OC(O)C(O)C3O)C(O)C2O)C(O)C(O)C1O (stereo not drawn) [Maltotriose],7.44
6,CC(=O)C1(O)CCC2C3CC(C)C4=CC(=O)CCC4(C)C3CCC21C (stereo not drawn) [Medroxyprogesterone],0.429
7,Cc1cccc(Nc2ccccc2C(=O)O)c1C [Mefenamic acid],0.437
8,COc1ccc2[nH]cc(CCNC(C)=O)c2c1 [Melatonin],0.468
9,OCC1OC(OCC2OC(O)C(O)C(O)C2O)C(O)C(O)C1O (stereo not drawn) [Melibiose],7.08
10,Cc1cnc(NC(=O)C2=C(O)c3ccccc3S(=O)(=O)N2C)s1 [Meloxicam],0.416
11,CC12CC3CC(C)(C1)CC(N)(C3)C2 [Memantine],1.94
12,CN(C)C(=N)N=C(N)N [Metformin],3.67
13,COc1ccc(OC)c(C(O)C(C)N)c1 (stereo not drawn) [Methoxamine],2.4
14,COC(=O)Cc1c[nH]c2ccccc12 [Methyl 3-indolyacetate],0.431
15,COC(=O)c1cccnc1 [Methyl nicotinate],0.625
16,COC(=O)Cc1ccc(C(C)(C)C)cc1 [Methyl p-tert-butylphenylacetate],0.415
17,COC(=O)CCCC(=O)O [Monomethyl glutarate],0.562
18,CC(=O)NCCCNCCCCNCCCN [N1-Acetylspermine],8.5
19,CC(=O)NCCCCNCCCN [N8-Acetylspermidine],7.25
20,CNC(=O)c1cccnc1 [N'-Methylnicotinamide],0.564
21,"CN(C)CC(=O)O [N,N-Dimethylglycine]",5.8
22,O=C(O)CNC(=O)CCc1ccccc1 [N-(3-Phenylpropionyl)glycine],1.25
23,CC(=O)NCCCCCN [N-(5-Aminopentyl)acetamide],4.61
24,CC(=O)NCCc1c[nH]c2ccc(O)cc12 [N-Acetyl-5-hydroxytryptamine],0.492

row,SMILES,LC retention time [min]
1,CC(=O)N1CCC[C@H]1C(=O)O [N-Acetyl-L-Proline],4.98
2,CC(=O)N[C@@H](C)C(=O)O [N-Acetyl-L-alanine],4.36
3,CC(=O)N[C@@H](CCCN=C(N)N)C(=O)O [N-Acetyl-L-arginine],6.21
4,CC(=O)N[C@@H](CS)C(=O)O [N-Acetyl-L-cysteine],3.49
5,CC(=O)N[C@@H](CC(C)C)C(=O)O [N-Acetyl-L-leucine],1.18
6,CSCC[C@H](NC(C)=O)C(=O)O [N-Acetyl-L-methionine],1.97
7,CC(=O)N[C@@H](CCCN)C(=O)O [N-Acetyl-L-ornithine],6.58
8,CC(=O)N[C@@H](Cc1ccccc1)C(=O)O [N-Acetyl-L-phenylalanine],1.32
9,CC(=O)N[C@@H](Cc1ccc(O)cc1)C(=O)O [N-Acetyl-L-tyrosine],2.85
10,CC(=O)NC(CCC(=O)O)C(=O)O (stereo not drawn) [N-Acetylglutamic acid],5.85
11,CC(=O)NCC(=O)O [N-Acetylglycine],5.64
12,CC(=O)NC1C(O)CC(O)(C(=O)O)OC1C(O)C(O)CO (stereo not drawn) [N-Acetylneuraminic acid],6.84
13,CSCC[C@H](NC=O)C(=O)O [N-Formyl-L-methionine],2.34
14,CC(C)CC(=O)NCC(=O)O [N-Iso valerylglycine],1.63
15,CN[C@H](CC(=O)O)C(=O)O [N-Methyl-D-aspartic acid],7.02
16,CN[C@@H](CCC(=O)O)C(=O)O [N-Methyl-L-glutamic acid],6.54
17,CNCCc1ccc(O)cc1 [N-Methyltyramine],2.53
18,CC=C(C)C(=O)NCC(=O)O [N-Tiglylglycine],1.97
19,CC(=O)NC(CCC(N)=O)C(=O)O [N-alpha-Acetyl-L-glutamine],5.85
20,CC(=O)NC(CCCCN)C(=O)O [N-alpha-Acetyl-L-lysine],6.17
21,NC(=O)C1=CN(C2OC(COP(=O)(O)OP(=O)(O)OCC3OC(n4cnc5c(N)ncnc54)C(O)C3O)C(O)C2O)C=CC1 (stereo not drawn) [NADH],7.5
22,NC(=O)c1ccc[n+](C2OC(COP(=O)(O)OP(=O)([O-])OCC3OC(n4cnc5c(N)ncnc54)C(OP(=O)(O)O)C3O)C(O)C2O)c1 (stereo not drawn) [NADP],8.7
23,NC(=O)c1ccc[n+](C2OC(COP(=O)(O)OP(=O)([O-])OCC3OC(n4cnc5c(N)ncnc54)C(O)C3O)C(O)C2O)c1 (stereo not drawn) [NAD],7.82
24,CC1OC(OC2C(Oc3cc(O)c4c(c3)OC(c3ccc(O)cc3)CC4=O)OC(CO)C(O)C2O)C(O)C(O)C1O (stereo not drawn) [Naringin],3.67

row,SMILES,LC retention time [min]
1,Cc1ccnc2c1NC(=O)c1cccnc1N2C1CC1 [Nevirapine],0.596
2,NC(=O)c1cccnc1 [Niacinamide],0.678
3,COC(=O)C1=C(C)NC(C)=C(C(=O)OCCN(C)Cc2ccccc2)C1c1cccc([N+](=O)[O-])c1 (stereo not drawn) [Nicardipine],0.714
4,O=C(O)c1cccnc1 [Nicotinic acid],2.44
5,O=C(O)CNC(=O)c1cccnc1 [Nicotinuric acid],5.19
6,COC(=O)C1=C(C)NC(C)=C(C(=O)OC)C1c1ccccc1[N+](=O)[O-] [Nifedipine],0.418
7,CNC(=C[N+](=O)[O-])NCCSCc1csc(CN(C)C)n1 [Nizatidine],3.03
8,CC(=O)O[C@H](CC(=O)[O-])C[N+](C)(C)C [O-Acetyl-L-carnitine],5.88
9,NCCOP(=O)(O)O [O-Phosphorylethanolamine],7.28
10,NCC(O)c1ccc(O)cc1 (stereo not drawn) [Octopamine],3.85
11,COc1ccc2nc(S(=O)Cc3ncc(C)c(OC)c3C)[nH]c2c1 (stereo not drawn) [Omeprazole],0.484
12,NCCCC(N)C(=O)O (stereo not drawn) [Ornithine],7.71
13,CCOC(=O)C1=CC(OC(CC)CC)C(NC(C)=O)C(N)C1 (stereo not drawn) [Oseltamivir],2.47
14,O=c1[nH]c(=O)c2cn[nH]c2[nH]1 [Oxipurinol],1.88
15,CCN(CC)CC#CCOC(=O)C(O)(c1ccccc1)C1CCCCC1 (stereo not drawn) [Oxybutynin],0.847
16,Fc1ccc(C2CCNCC2COc2ccc3c(c2)OCO3)cc1 (stereo not drawn) [Paroxetine],1.19
17,Nc1nc2c(ncn2CCC(CO)CO)c(=O)[nH]1 [Penciclovir],4.51
18,CCCC(NC(C)C(=O)N1C(C(=O)O)CC2CCCCC21)C(=O)OCC (stereo not drawn) [Perindopril erbumine],0.553
19,OCCN1CCN(CCCN2c3ccccc3Sc3ccc(Cl)cc32)CC1 [Perphenazine],1.55
20,NC(=O)CCC(NC(=O)Cc1ccccc1)C(=O)O (stereo not drawn) [Phenyl-Ac-Gln-OH],3.83
21,O=C(CCc1ccc(O)cc1)c1c(O)cc(O)cc1OC1OC(CO)C(O)C(O)C1O (stereo not drawn) [Phloridzin],1.25
22,C=C(OP(=O)(O)O)C(=O)O [Phospho(enol)pyruvic Acid],7.08
23,NC(COP(=O)(O)O)C(=O)O (stereo not drawn) [Phosphoserine],7.9
24,O=C(O)c1ccccc1C(=O)O [Phthalic acid],0.963

row,SMILES,LC retention time [min]
1,CCC1C(=O)OCC1Cc1cncn1C (stereo not drawn) [Pilocarpine],1.22
2,O=C(O)CCCCCC(=O)O [Pimelic acid],0.909
3,CCc1ccc(CCOc2ccc(CC3SC(=O)NC3=O)cc2)nc1 (stereo not drawn) [Pioglitazone],0.47
4,O=C(C=CC=Cc1ccc2c(c1)OCO2)N1CCCCC1 [Piperine],0.44
5,CN1C(C(=O)Nc2ccccn2)=C(O)c2ccccc2S1(=O)=O [Piroxicam],0.44
6,CCN(CC)CCNC(=O)c1ccc(N)cc1 [Procainamide],2.3
7,CC(=O)C1CCC2C3CCC4=CC(=O)CCC4(C)C3CCC12C (stereo not drawn) [Progesterone],0.425
8,CC(CN1c2ccccc2Sc2ccccc21)N(C)C (stereo not drawn) [Promethazine],0.952
9,CCCOC(=O)c1cc(O)c(O)c(O)c1 [Propyl gallate],0.478
10,c1ncc2[nH]cnc2n1 [Purine],1.01
11,Cc1ncc(COP(=O)(O)O)c(C=O)c1O [Pyridoxal 5'-phosphate],5.97
12,Cc1ncc(CO)c(C=O)c1O [Pyridoxal],0.981
13,Cc1ncc(CO)c(CN)c1O [Pyridoxamine],6.5
14,Cc1ncc(CO)c(CO)c1O [Pyridoxine],1.92
15,O=c1c(O)c(-c2ccc(O)c(O)c2)oc2cc(O)cc(O)c12 [Quercetin],0.592
16,CCN(CC)CCCC(C)Nc1c2ccc(Cl)cc2nc2ccc(OC)cc12 (stereo not drawn) [Quinacrine],3.99
17,O=C(O)c1ccc2ccccc2n1 [Quinaldic acid],1.48
18,O=C(c1ccc(OCCN2CCCCC2)cc1)c1c(-c2ccc(O)cc2)sc2cc(O)ccc12 [Raloxifene],1.42
19,CNC(=C[N+](=O)[O-])NCCSCc1ccc(CN(C)C)o1 [Ranitidine],3.12
20,COC(=O)C1C2CC3c4[nH]c5cc(OC)ccc5c4CCN3CC2CC(OC(=O)c2cc(OC)c(OC)c(OC)c2)C1OC (stereo not drawn) [Reserpine],0.769
21,CC(C=CC1=C(C)CCCC1(C)C)=CC=CC(C)=CC(=O)O [Retinoic Acid],0.433
